In publication PMC10746543, “Design principles for cyclin K molecular glue degraders” (Nature Chemical Biology, 2023):
Several values for one entry are separate records, joined by “and”; a condition that tells them apart may be missing. Identical values can stand only once.

What was measured:
HEK293T cells = assay: Drug sensitivity assay (CellTiter-Glo viability) with or without MLN4924 pretreatment; type: cell-based, human; details: Supplementary Table 2
Summary of the method: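 First, cells (HEK293T–Cas9, 0.15 × 10^6 ml^−1) are exposed to DMSO or 100 nM MLN4924. Next, drugs follow at 2 h. Finally, CellTiter-Glo is read at day 3 and normalised to DMSO.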

CDK12–cyclin K = CDK12–cyclin K (Homo sapiens, UniProt Q9NYV4); assay: Lanthascreen kinase binding assay, CDK12; details: for Lanthascreen raw signal, sheet CDK12: series r37, duplicates
Protocol: Lanthascreen experiments were performed using commercially available reagents (Thermo Fisher) and according to the manufacturer’s instructions.

cyclin K = assay: Label-free quantitative mass spectrometry in MDA-MB-231 cells, cyclin K; type: cell-based, human
Protocol: (§1) MDA-MB-231 cells were treated with DMSO or a cyclin K degrader compound at 1 µM for 5 h. Cells were collected by centrifugation and washed with phosphate-buffered saline before snap freezing in liquid nitrogen. Cells were lysed by addition of lysis buffer (8 M urea, 50 mM NaCl, 50 mM 4-(2-hydroxyethyl)-1-piperazineethanesulfonic acid (EPPS) pH 8.5, and protease and phosphatase inhibitors) and homogenization by bead beating (BioSpec) for three repeats of 30 s at 2,400 rpm. Bradford assay was used to determine the final protein concentration in the clarified cell lysate. Then 50 µg of protein for each sample was reduced, alkylated and precipitated using methanol/chloroform as previously described, and the resulting washed precipitated protein was allowed to air dry. Precipitated protein was resuspended in 4 M urea, 50 mM HEPES pH 7.4, followed by dilution to 1 M urea with the addition of 200 mM EPPS, pH 8. Proteins were first digested with LysC (1:50; enzyme:protein) for 12 h at room temperature. The LysC digestion was diluted to 0.5 M urea with 200 mM EPPS pH 8 followed by digestion with trypsin (1:50; enzyme:protein) for 6 h at 37 °C. Sample digests were acidified with formic acid to a pH of 2–3 before desalting using C18 solid phase extraction plates (SOLA, Thermo Fisher Scientific). Desalted peptides were dried in a vacuum-centrifuged and reconstituted in 0.1% formic acid for liquid chromatography–mass spectrometry analysis.
(§2) Data were collected using a TimsTOF Pro2 (Bruker Daltonics) coupled to a nanoElute LC pump (Bruker Daltonics) via a CaptiveSpray nano-electrospray source. Peptides were separated on a reversed-phase C18 column (25 cm × 75 µm inner diameter, […], IonOpticks) containing an integrated captive spray emitter. Peptides were separated using a 50 min gradient of 2–30% buffer B (acetonitrile in 0.1% formic acid) with a flow rate of 250 nl min^−1 and column temperature maintained at 50 °C.
(§3) Data-dependent acquisition (DDA) was performed in Parallel Accumulation-Serial Fragmentation (PASEF) mode to determine effective ion mobility windows for downstream diaPASEF data collection. The ddaPASEF parameters included: 100% duty cycle using accumulation and ramp times of 50 ms each, one Trapped Ion Mobility Spectrometry(TIMS)-MS scan and ten PASEF ramps per acquisition cycle. The TIMS-MS survey scan was acquired between 100 m/z and 1,700 m/z and 1/K0 of 0.7–1.3 V s cm^−2. Precursors with one to five charges were selected, and those that reached an intensity threshold of 20,000 arbitrary units were actively excluded for 0.4 min. The quadrupole isolation width was set to 2 m/z for m/z < 700 and 3 m/z for m/z > 800, with the m/z between 700 m/z and 800 m/z being interpolated linearly. […] To perform diaPASEF, the precursor distribution in the DDA m/z-ion mobility plane was used to design an acquisition scheme for data-independent acquisition (DIA) data collection that included two windows in each 50 ms diaPASEF scan. Data were acquired using 16 of these 25 Da precursor double window scans (creating 32 windows) that covered the diagonal scan line for doubly and triply charged precursors, with singly charged precursors able to be excluded by their position in the m/z-ion mobility plane. These precursor isolation windows were defined between 400 m/z and 1,200 m/z and 1/K0 of 0.7–1.3 V s cm^−2.
(§4) DirectDIA mode includes first extracting the DIA data into a collection of MS2 spectra which are searched using Spectronaut’s Pulsar search engine. The search results are then used to generate a spectral library which is then employed for the targeted analysis of the DIA data. MS/MS spectra were searched against a Swissprot human database (January 2021). Database search criteria largely followed the default settings for directDIA including: tryptic with two missed cleavages, fixed carbomidomethylation of cysteine, and variable oxidation of methionine and acetylation of protein N-termini and precursor Q-value (FDR) cut-off of 0.01. […]

CDK12 = molecular target: T1, CDK12 (Homo sapiens, UniProt Q16531+Q9NYV4); assay: Label-free quantitative mass spectrometry in MDA-MB-231 cells, CDK12; type: cell-based
T1 construct: endogenous in cells; host or cells: MDA-MB-231
T1 sequence (Q9NYV4 whole entry): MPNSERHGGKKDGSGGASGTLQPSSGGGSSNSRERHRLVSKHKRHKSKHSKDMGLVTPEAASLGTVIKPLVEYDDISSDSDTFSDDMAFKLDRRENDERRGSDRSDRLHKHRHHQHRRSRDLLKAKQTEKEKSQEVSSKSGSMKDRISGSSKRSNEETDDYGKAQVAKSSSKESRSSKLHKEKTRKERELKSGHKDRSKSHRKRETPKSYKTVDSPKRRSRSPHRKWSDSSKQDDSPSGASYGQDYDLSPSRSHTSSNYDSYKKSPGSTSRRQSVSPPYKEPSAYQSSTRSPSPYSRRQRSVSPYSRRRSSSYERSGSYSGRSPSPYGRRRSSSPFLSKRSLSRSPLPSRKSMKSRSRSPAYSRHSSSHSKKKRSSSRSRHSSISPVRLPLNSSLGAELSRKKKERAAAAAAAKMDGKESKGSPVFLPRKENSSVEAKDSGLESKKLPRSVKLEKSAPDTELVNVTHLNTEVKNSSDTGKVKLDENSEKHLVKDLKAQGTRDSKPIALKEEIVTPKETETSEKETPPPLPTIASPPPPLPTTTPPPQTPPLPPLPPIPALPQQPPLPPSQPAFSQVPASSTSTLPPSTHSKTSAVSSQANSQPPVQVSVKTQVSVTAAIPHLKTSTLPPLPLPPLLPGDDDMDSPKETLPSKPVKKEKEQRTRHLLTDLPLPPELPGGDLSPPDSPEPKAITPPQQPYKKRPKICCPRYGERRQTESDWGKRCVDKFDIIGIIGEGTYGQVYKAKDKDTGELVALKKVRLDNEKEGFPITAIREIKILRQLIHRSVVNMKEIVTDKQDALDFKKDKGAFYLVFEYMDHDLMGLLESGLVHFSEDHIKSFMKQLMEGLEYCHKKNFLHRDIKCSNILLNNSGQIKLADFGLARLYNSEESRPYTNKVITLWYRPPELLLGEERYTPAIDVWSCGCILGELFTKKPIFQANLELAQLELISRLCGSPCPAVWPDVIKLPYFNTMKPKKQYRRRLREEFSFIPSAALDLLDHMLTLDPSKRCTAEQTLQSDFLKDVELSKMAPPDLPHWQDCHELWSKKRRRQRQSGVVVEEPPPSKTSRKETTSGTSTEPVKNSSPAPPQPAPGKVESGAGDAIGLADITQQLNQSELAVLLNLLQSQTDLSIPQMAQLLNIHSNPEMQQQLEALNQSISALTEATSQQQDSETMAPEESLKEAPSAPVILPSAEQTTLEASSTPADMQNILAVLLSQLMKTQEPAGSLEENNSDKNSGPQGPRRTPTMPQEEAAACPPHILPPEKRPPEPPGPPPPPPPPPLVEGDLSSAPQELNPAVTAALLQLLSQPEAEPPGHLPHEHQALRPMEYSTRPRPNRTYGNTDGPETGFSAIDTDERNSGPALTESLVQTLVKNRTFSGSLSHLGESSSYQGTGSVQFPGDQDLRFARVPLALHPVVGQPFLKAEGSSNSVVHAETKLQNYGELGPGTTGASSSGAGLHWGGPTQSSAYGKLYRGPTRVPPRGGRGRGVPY
T1 sequence (O75909 whole entry partner): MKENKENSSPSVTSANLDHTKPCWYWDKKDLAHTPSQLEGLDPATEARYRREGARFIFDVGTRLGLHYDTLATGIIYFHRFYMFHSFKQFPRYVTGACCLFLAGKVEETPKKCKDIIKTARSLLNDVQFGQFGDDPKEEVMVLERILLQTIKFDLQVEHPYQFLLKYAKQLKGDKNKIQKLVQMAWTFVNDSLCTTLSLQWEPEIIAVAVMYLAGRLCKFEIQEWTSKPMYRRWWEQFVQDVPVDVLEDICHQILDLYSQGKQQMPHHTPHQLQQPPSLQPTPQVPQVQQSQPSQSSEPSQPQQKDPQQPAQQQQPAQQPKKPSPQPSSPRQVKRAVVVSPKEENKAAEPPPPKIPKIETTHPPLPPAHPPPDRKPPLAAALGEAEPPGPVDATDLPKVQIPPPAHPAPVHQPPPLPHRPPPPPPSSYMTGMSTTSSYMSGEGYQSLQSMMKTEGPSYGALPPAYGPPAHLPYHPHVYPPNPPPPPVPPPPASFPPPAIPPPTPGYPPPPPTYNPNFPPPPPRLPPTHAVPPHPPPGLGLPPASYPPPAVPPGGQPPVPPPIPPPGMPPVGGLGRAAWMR
T1 sequence (Q16531 2-1140 limits assumed): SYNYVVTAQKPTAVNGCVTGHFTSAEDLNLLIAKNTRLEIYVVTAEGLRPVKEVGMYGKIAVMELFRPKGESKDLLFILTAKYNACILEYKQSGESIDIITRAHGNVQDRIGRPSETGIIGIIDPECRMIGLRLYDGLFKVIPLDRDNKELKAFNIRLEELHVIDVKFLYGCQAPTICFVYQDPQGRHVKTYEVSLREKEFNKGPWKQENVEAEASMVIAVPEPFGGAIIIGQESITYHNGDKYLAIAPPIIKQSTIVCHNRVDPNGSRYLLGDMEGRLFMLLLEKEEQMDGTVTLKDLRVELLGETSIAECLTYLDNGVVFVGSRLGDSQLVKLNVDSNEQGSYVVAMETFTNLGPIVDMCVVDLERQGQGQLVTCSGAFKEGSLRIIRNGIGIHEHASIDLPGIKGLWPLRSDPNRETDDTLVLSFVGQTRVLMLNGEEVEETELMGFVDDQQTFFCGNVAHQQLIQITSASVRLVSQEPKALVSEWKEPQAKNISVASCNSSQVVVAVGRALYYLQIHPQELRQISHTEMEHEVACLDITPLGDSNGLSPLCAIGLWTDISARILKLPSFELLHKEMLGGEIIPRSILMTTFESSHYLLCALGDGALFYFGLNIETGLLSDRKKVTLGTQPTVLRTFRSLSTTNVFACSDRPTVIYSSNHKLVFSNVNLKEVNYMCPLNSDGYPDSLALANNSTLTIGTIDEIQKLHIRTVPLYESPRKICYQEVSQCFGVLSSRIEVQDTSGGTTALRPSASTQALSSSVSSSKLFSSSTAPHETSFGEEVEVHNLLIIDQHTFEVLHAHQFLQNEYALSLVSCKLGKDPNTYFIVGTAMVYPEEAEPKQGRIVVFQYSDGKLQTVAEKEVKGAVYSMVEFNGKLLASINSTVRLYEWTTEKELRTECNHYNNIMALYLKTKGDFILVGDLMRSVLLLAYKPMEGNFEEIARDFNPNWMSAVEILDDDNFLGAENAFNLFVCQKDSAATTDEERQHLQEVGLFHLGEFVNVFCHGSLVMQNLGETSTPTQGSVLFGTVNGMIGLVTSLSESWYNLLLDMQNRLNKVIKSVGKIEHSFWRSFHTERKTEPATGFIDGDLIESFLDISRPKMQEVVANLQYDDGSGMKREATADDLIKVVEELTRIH
Protocol: as §1, §2, §3, §4

CDK13 = molecular target: T2, CDK13 (Homo sapiens, UniProt Q14004+Q16531); assay: Label-free quantitative mass spectrometry in MDA-MB-231 cells, CDK13; type: cell-based
T2 construct: endogenous in cells; host or cells: MDA-MB-231
T2 sequence (Q14004 whole entry): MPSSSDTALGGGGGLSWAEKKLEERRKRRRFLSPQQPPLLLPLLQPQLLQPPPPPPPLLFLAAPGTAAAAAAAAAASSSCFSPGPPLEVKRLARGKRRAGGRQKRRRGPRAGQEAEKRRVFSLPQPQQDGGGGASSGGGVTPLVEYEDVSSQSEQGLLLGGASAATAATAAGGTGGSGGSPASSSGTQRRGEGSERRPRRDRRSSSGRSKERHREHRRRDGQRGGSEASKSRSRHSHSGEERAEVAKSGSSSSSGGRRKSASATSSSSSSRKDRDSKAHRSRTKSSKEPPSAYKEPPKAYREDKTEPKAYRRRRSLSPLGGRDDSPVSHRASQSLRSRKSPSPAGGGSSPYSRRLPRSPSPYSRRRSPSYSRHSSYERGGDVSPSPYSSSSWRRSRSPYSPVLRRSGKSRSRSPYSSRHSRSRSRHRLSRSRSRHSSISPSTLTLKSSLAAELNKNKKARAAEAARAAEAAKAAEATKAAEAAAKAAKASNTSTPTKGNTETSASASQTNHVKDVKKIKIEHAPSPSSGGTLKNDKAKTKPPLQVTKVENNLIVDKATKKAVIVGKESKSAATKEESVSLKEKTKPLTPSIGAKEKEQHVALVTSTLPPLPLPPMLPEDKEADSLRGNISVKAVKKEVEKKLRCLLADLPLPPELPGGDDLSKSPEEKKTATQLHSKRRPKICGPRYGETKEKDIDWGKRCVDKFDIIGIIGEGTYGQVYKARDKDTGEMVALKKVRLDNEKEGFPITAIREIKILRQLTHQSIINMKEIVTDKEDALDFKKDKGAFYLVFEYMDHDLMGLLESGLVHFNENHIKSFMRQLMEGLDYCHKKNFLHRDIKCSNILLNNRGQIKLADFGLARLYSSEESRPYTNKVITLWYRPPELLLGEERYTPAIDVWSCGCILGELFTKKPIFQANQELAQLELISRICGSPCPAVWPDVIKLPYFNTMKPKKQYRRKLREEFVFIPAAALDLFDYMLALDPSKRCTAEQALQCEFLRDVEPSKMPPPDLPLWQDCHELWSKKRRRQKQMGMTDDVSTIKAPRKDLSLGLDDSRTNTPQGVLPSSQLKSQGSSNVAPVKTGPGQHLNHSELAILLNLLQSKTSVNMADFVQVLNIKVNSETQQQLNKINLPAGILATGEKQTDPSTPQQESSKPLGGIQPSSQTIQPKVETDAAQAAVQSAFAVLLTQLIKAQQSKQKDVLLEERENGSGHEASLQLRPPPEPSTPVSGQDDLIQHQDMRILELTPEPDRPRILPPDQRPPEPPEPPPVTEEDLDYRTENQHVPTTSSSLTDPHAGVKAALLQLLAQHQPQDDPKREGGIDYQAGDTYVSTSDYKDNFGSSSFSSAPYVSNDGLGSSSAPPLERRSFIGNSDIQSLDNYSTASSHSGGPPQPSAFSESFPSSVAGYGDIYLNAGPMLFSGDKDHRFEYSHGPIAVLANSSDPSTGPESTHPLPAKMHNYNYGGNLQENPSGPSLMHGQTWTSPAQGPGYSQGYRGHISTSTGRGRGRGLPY
T2 sequence (O75909 whole entry partner): as the sequence (O75909 whole entry partner) above
T2 sequence (Q16531 2-1140 limits assumed): as the sequence (Q16531 2-1140 limits assumed) above
Protocol: as §1, §2, §3, §4

[1] = label-free quantitative MS, replicate values
[2] = normalised to DMSO = 1, replicate values

## CC[C@H](CO)Nc1nc(NCc2nc3cc(Cl)c(Cl)cc3[nH]2)c2ncn(C(C)C)c2n1 [DS17]
HEK293T cells; Homo sapiens, HEK-293T, HEK293T viability, 72 h, compound alone, read-out: Cellular assays EC50
  EC50: 0.093 µM
HEK293T cells; MLN4924-mediated cytotoxicity rescue, 10 µM used where n.d.
  Toxicity rescue: 53%
CDK12–cyclin K; Lanthascreen across CDK2/9/12
  CDK inhibitory selectivity, result in words: CDK12 selective
CDK12–cyclin K; Supplementary Table 2, read-out: Lanthascreen IC50 [nM] CDK12
  IC50: 117 nM
CDK12–cyclin K; compound 0.038147 nM
  Lanthascreen raw signal, sheet CDK12: 0.01439 and 0.01466
CDK12–cyclin K; compound 0.152588 nM
  Lanthascreen raw signal, sheet CDK12: 0.01355 and 0.01465
CDK12–cyclin K; compound 0.610352 nM
  Lanthascreen raw signal, sheet CDK12: 0.01399 and 0.01278
CDK12–cyclin K; compound 9.76563 nM
  Lanthascreen raw signal, sheet CDK12: 0.01302 and 0.01264
CDK12–cyclin K; compound 39.0625 nM
  Lanthascreen raw signal, sheet CDK12: 0.01048 and 0.01099
CDK12–cyclin K; compound 156.25 nM
  Lanthascreen raw signal, sheet CDK12: 0.008496 and 0.009307
CDK12–cyclin K; compound 625 nM
  Lanthascreen raw signal, sheet CDK12: 0.00749 and 0.007398
CDK12–cyclin K; compound 2500 nM
  Lanthascreen raw signal, sheet CDK12: 0.006169 and 0.00594
CDK12–cyclin K; compound 10000 nM
  Lanthascreen raw signal, sheet CDK12: 0.005029 and 0.005256
Cyclin K; MDA-MB-231 cells, 1 µM, 5 h
  cyclin K depletion, result in words: more effective at depleting cyclin K than CR8
Cyclin K; individual replicates, sheet EDF7
  cyclin K abundance (label-free MS): 47.1483 and 71.6427
Cyclin K; [1]
  cyclin K abundance (label-free MS): 47.1483 and 71.6427
Cyclin K; [2]
  CCNK peptide count (DMSO-normalised): 0.02576 and 0.03985
Cyclin K; sheet EDF7
  average CCNK peptide count: 59.3955
CDK12; [1]
  CDK12 peptide count: 546.795 and 667.348
CDK12; [2]
  CDK12 peptide count (DMSO-normalised): 0.6075 and 0.6893
CDK13; [1]
  CDK13 peptide count: 156.014 and 130.628
CDK13; [2]
  CDK13 peptide count (DMSO-normalised): 0.2321 and 0.2007
